{
  "source": "patent US20070299089A1",
  "about": "“Use of A2A Adenosine Receptor Agonists in the Treatment of Ischemia” (CV THERAPEUTICS, INC., priority 2006, published 2007)",
  "key": {"mouse isolated hearts [1]": {"system": "mouse isolated hearts", "experiment": "Coronary vascular resistance in Langendorff-perfused isolated hearts, Protocol 1 (CPP lowered to 30 mmHg for 20 min, then restored to 65 mmHg)", "conditions": "for increase in CVR during lowering of CPP: n=6, p<0.001", "description": "(§1) The objective of this example was to determine whether the selective and stable A2A agonist, regadenoson, can prevent or modify coronary microcirculation vasoconstriction during ischemia. To this purpose, in 60 mouse isolated hearts perfused in Langendorff configuration coronary vascular resistance (CVR) was continuously monitored for 70 min during various interventions using two different protocols. In hearts (n=9) perfused at a constant coronary perfusion pressure (CPP) of 65 mmHg CVR remained stable throughout the 70 min of the experiment.\nIn Protocol 1, CPP was lowered to 30 mmHg at 20 min, maintained for the following 20 min and restored to 65 mmHg for the remaining 30 min. In untreated hearts (n=12), lowering CPP for 20 min increased CVR up to a maximum of 191%±9 above baseline (P<0.001)."}, "mouse isolated hearts [2]": {"system": "mouse isolated hearts", "experiment": "Coronary vascular resistance in Langendorff-perfused isolated hearts, Protocol 2 (CPP lowered to 30 mmHg and maintained for 50 min)", "conditions": "n=6", "description": "as §1\nIn Protocol 2, CPP was lowered to 30 mmHg at 20 min and maintained for the remaining 50 min. In untreated hearts (n=9), the sustained lowering of CPP was accompanied by a progressive rise in CVR up to the end of the experiment when it reached a maximum of 240%±21 above baseline. Addition of regadenoson (10 nM) to the perfusate either at 10 (n=6) or 30 (n=6) min after lowering CPP caused a rapid and progressive vasodilation thereby bringing CVR to baseline values within 10 min. In summary, the isolated heart reacts to lowering of CPP with a progressive and severe vasoconstriction that can be prevented by pre-treatment with an A2A agonist."}, "Solubility in water": {"experiment": "Solubility in water", "type": "physicochemical", "description": "In one aspect of this invention, mammalian ischemia is treated with a pharmaceutical composition including CVT-3146—regadenoson. Regadenoson has solubility in water of about 50 micrograms/mL. Therefore, regadenoson can be dissolved and administered in water so long as the desired weight amount of regadenoson can be administered in an acceptable volume. For example, a dose of about 400 micrograms can be administered in 8 mL of water. If this volume is too great for administration purposes, or if the pharmaceutical composition will be stored at other than room temperature (RT), then additional ingredients can be added to the composition to increase the solubility of regadenoson in the composition and/or to provide the resulting pharmaceutical composition with other improved properties such as improved stability and storage properties."}},
  "data": [
    {"smiles": "CNC(=O)c1cnn(-c2nc(N)c3ncn([C@@H]4O[C@H](CO)[C@@H](O)[C@H]4O)c3n2)c1", "note": "[regadenoson, (1-{9-[(4S,2R,3R,5R)-3,4-dihydroxy-5-(hydroxymethyl)oxolan-2-yl]-6-aminopurin-2-yl}pyrazol-4-yl)-N-methylcarboxamide]", "values": [
      {"measurement": "maximum increase in CVR above baseline during lowering of CPP", "setting": "mouse isolated hearts [1]; regadenoson 3 nM, CPP 30 mmHg for 20 min, n=6, untreated hearts 191%±9", "result": "131%±15"},
      {"measurement": "elevated CVR remaining after restoring CPP to 65 mmHg", "setting": "mouse isolated hearts [1]; regadenoson 3 nM, untreated hearts 153%±10 above baseline", "result": "significantly reduced"},
      {"measurement": "increase in CVR during lowering of CPP", "setting": "mouse isolated hearts [1]; regadenoson 10 nM, CPP 30 mmHg for 20 min", "result": "abolished the increase in CVR"},
      {"measurement": "elevated CVR remaining after restoring CPP to 65 mmHg", "setting": "mouse isolated hearts [1]; regadenoson 10 nM, p<0.01", "result": "abolished"},
      {"measurement": "increase in CVR during lowering of CPP", "setting": "mouse isolated hearts [1]; regadenoson 30 nM, CPP 30 mmHg for 20 min", "result": "abolished the increase in CVR"},
      {"measurement": "elevated CVR remaining after restoring CPP to 65 mmHg", "setting": "mouse isolated hearts [1]; regadenoson 30 nM, p<0.01", "result": "abolished"},
      {"measurement": "time to bring CVR to baseline values", "setting": "mouse isolated hearts [2]; regadenoson 10 nM added to perfusate 10 min after lowering CPP", "result": "≤ 10", "unit": "min"},
      {"measurement": "time to bring CVR to baseline values", "setting": "mouse isolated hearts [2]; regadenoson 10 nM added to perfusate 30 min after lowering CPP", "result": "≤ 10", "unit": "min"},
      {"measurement": "solubility", "setting": "Solubility in water", "result": "~50", "unit": "µg/mL"}
    ]}
  ]
}
